Test results as given in the NIST ThermoML archive (doi:10.1016/j.fluid.2014.11.020).
± gives the expanded uncertainty stated by the source.

Test: activity coefficient (dimensionless); of the first substance listed, at infinite dilution; xn = mol fraction of the nth substance listed
Settings: Liquid, Chromatography, x1 = 0

Structure (SMILES)	activity coefficient (323.15 K)	activity coefficient (333.15 K)	activity coefficient (343.15 K)
CC1CCCCC1 [methylcyclohexane] + CN(C)c1cc[n+](COCCCOC[n+]2ccc(N(C)C)cc2)cc1.O=S(=O)([N-]S(=O)(=O)C(F)(F)F)C(F)(F)F.O=S(=O)([N-]S(=O)(=O)C(F)(F)F)C(F)(F)F	13.9 ± 0.95	12.7 ± 0.87	11.8 ± 0.8
CCCCCCCC [octane] + CCCOC[n+]1ccn(Cc2ccccc2)c1.N#C[N-]C#N	70.1 ± 4.8	61.5 ± 4.2	57.8 ± 4
CC(C)O [propan-2-ol] + CCCCCCCCn1cc[n+](COCCC)c1C.O=S(=O)([N-]S(=O)(=O)C(F)(F)F)C(F)(F)F	1.16 ± 0.07	1.05 ± 0.07	0.99 ± 0.06
ClC(Cl)(Cl)Cl [tetrachloromethane] + CCCOC[n+]1ccn(C)c1.F[B-](F)(F)F	8.91 ± 0.61	8.58 ± 0.59	8.19 ± 0.56
Cc1ccccc1 [toluene] + CCCOC[n+]1ccc(N(C)C)cc1.O=S(=O)([N-]S(=O)(=O)C(F)(F)F)C(F)(F)F	0.99 ± 0.06	1.04 ± 0.07	1.05 ± 0.07
CO [methanol] + CCCOC[n+]1ccn(Cc2ccccc2)c1.F[B-](F)(F)F	1.13 ± 0.07	1.04 ± 0.07	0.97 ± 0.06
C=CCCCC [hex-1-ene] + CCCCCCCCn1cc[n+](COCCC)c1C.O=S(=O)([N-]S(=O)(=O)C(F)(F)F)C(F)(F)F	2.65 ± 0.18	2.38 ± 0.16	2.47 ± 0.17
Cc1ccccc1 [toluene] + CCCOC[n+]1ccn(Cc2ccccc2)c1.F[B-](F)(F)F	3.12 ± 0.21	3.03 ± 0.21	3.04 ± 0.21
ClC(Cl)(Cl)Cl [tetrachloromethane] + CCCCCCCCn1cc[n+](COCCC)c1C.N#C[N-]C#N	1.21 ± 0.08	1.23 ± 0.08	1.24 ± 0.08
Cc1cccc(C)c1 [1,3-dimethylbenzene] + Cn1cc[n+](COCCCOC[n+]2ccn(C)c2)c1.O=S(=O)([N-]S(=O)(=O)C(F)(F)F)C(F)(F)F.O=S(=O)([N-]S(=O)(=O)C(F)(F)F)C(F)(F)F	2.39 ± 0.16	2.41 ± 0.16	2.38 ± 0.16
CCc1ccccc1 [ethylbenzene] + CCCOC[n+]1ccn(C)c1.N#C[N-]C#N	6 ± 0.41	6.06 ± 0.41	6.12 ± 0.42
CCCCCCCCCC [decane] + CN(C)c1cc[n+](COCCCOC[n+]2ccc(N(C)C)cc2)cc1.O=S(=O)([N-]S(=O)(=O)C(F)(F)F)C(F)(F)F.O=S(=O)([N-]S(=O)(=O)C(F)(F)F)C(F)(F)F	79.5 ± 5.5	71 ± 4.9	63 ± 4.3
CCC(=O)CC [pentan-3-one] + CCCOC[n+]1ccn(Cc2ccccc2)c1.F[B-](F)(F)F	1.73 ± 0.12	1.74 ± 0.12	1.75 ± 0.12
C1CCCCCC1 [cycloheptane] + CCCCCCCCn1cc[n+](COCCCOC[n+]2ccn(CCCCCCCC)c2C)c1C.N#C[N-]C#N.N#C[N-]C#N	10.1 ± 0.69	13.5 ± 0.92	18.3 ± 1.2
CCOCC [diethyl ether] + CCCCCCCCn1cc[n+](COCCCOC[n+]2ccn(CCCCCCCC)c2C)c1C.N#C[N-]C#N.N#C[N-]C#N	2.41 ± 0.16	2.33 ± 0.16	2.13 ± 0.14
Cc1cccc(C)c1 [1,3-dimethylbenzene] + CCCOC[n+]1ccn(C)c1.N#C[N-]C#N	6.24 ± 0.43	6.24 ± 0.43	6.41 ± 0.44
c1ccsc1 [thiophene] + CCCOC[n+]1ccc(N(C)C)cc1.O=S(=O)([N-]S(=O)(=O)C(F)(F)F)C(F)(F)F	0.65 ± 0.04	0.69 ± 0.05	0.69 ± 0.05
ClCCl [dichloromethane] + CCCOC[n+]1ccn(C)c1.N#C[N-]C#N	0.69 ± 0.05	0.74 ± 0.05	0.78 ± 0.05
CCC[N+](=O)[O-] [1-nitropropane] + CCCOC[n+]1ccn(C)c1.O=S(=O)([N-]S(=O)(=O)C(F)(F)F)C(F)(F)F	0.74 ± 0.05	0.72 ± 0.05	0.72 ± 0.05
CCCC(C)=O [pentan-2-one] + N#C[N-]C#N.N#C[N-]C#N.c1ccc(Cn2cc[n+](COCCCOC[n+]3ccn(Cc4ccccc4)c3)c2)cc1	3.1 ± 0.21	3.05 ± 0.21	3.08 ± 0.21
CC#N [acetonitrile] + CCCCCCCCn1cc[n+](COCCC)c1C.N#C[N-]C#N	0.72 ± 0.05	0.7 ± 0.05	0.69 ± 0.05
Cc1cccc(C)c1 [1,3-dimethylbenzene] + CCCOC[n+]1ccn(C)c1.O=S(=O)([N-]S(=O)(=O)C(F)(F)F)C(F)(F)F	2.59 ± 0.18	2.54 ± 0.17	2.54 ± 0.17
C[N+](=O)[O-] [nitromethane] + CCCCCCCCn1cc[n+](COCCC)c1C.N#C[N-]C#N	0.68 ± 0.05	0.66 ± 0.05	0.63 ± 0.04

Structure (SMILES)	activity coefficient (323.15 K)	activity coefficient (333.15 K)	activity coefficient (343.15 K)
CC1CCCC1 [methylcyclopentane] + CCCCCCCCn1cc[n+](COCCC)c1C.O=S(=O)([N-]S(=O)(=O)C(F)(F)F)C(F)(F)F	2.72 ± 0.19	2.41 ± 0.16	2.27 ± 0.15
CCCCCCCCCCC [undecane] + N#C[N-]C#N.N#C[N-]C#N.c1ccc(Cn2cc[n+](COCCCOC[n+]3ccn(Cc4ccccc4)c3)c2)cc1	554 ± 38	508 ± 35	457 ± 31
C#CCCCCC [1-heptyne] + CCCCCCCCn1cc[n+](COCCC)c1C.O=S(=O)([N-]S(=O)(=O)C(F)(F)F)C(F)(F)F	1.68 ± 0.11	1.64 ± 0.11	1.62 ± 0.11
CCOCC [diethyl ether] + CN(C)c1cc[n+](COCCCOC[n+]2ccc(N(C)C)cc2)cc1.O=S(=O)([N-]S(=O)(=O)C(F)(F)F)C(F)(F)F.O=S(=O)([N-]S(=O)(=O)C(F)(F)F)C(F)(F)F	2.46 ± 0.17	2.47 ± 0.17	2.43 ± 0.17
Cc1ccccc1 [toluene] + CCCOC[n+]1ccn(Cc2ccccc2)c1.N#C[N-]C#N	2.29 ± 0.16	2.26 ± 0.15	2.25 ± 0.15
C1COCCO1 [1,4-dioxane] + CCCOC[n+]1ccn(Cc2ccccc2)c1.F[B-](F)(F)F	0.95 ± 0.06	0.95 ± 0.06	0.96 ± 0.06
CCCCCCCC [octane] + CN(C)c1cc[n+](COCCCOC[n+]2ccc(N(C)C)cc2)cc1.O=S(=O)([N-]S(=O)(=O)C(F)(F)F)C(F)(F)F.O=S(=O)([N-]S(=O)(=O)C(F)(F)F)C(F)(F)F	37.9 ± 2.6	34.5 ± 2.4	30 ± 2
CCC[N+](=O)[O-] [1-nitropropane] + CCCOC[n+]1ccn(Cc2ccccc2)c1.N#C[N-]C#N	1.04 ± 0.07	1.06 ± 0.07	1.06 ± 0.07
CCCCCCCCCCCC [dodecane] + CN(C)c1cc[n+](COCCCOC[n+]2ccc(N(C)C)cc2)cc1.O=S(=O)([N-]S(=O)(=O)C(F)(F)F)C(F)(F)F.O=S(=O)([N-]S(=O)(=O)C(F)(F)F)C(F)(F)F	156 ± 11	137 ± 9.4	124 ± 8.5
CCCCCCCCCC [decane] + CCCOC[n+]1ccn(C)c1.N#C[N-]C#N	372 ± 26	356 ± 24	287 ± 20
CCC(C)CC [3-methylpentane] + CCCOC[n+]1ccn(Cc2ccccc2)c1.N#C[N-]C#N	28.5 ± 1.9		
CCCCCCC [heptane] + Cn1cc[n+](COCCCOC[n+]2ccn(C)c2)c1.O=S(=O)([N-]S(=O)(=O)C(F)(F)F)C(F)(F)F.O=S(=O)([N-]S(=O)(=O)C(F)(F)F)C(F)(F)F	53 ± 3.6	34 ± 2.3	
CC1CCCCC1 [methylcyclohexane] + CCCOC[n+]1ccn(C)c1.F[B-](F)(F)F	76 ± 5.2	70.4 ± 4.8	59.7 ± 4.1
Cc1ccccc1 [toluene] + CCCCCCCCn1cc[n+](COCCCOC[n+]2ccn(CCCCCCCC)c2C)c1C.N#C[N-]C#N.N#C[N-]C#N	0.94 ± 0.06	0.95 ± 0.06	0.97 ± 0.06
CCC(C)=O [butanone] + CCCOC[n+]1ccn(Cc2ccccc2)c1.O=S(=O)([N-]S(=O)(=O)C(F)(F)F)C(F)(F)F	0.32 ± 0.03	0.26 ± 0.03	0.22 ± 0.03
CC(C)OC(C)C [diisopropyl ether] + CCCCCCCCn1cc[n+](COCCCOC[n+]2ccn(CCCCCCCC)c2C)c1C.N#C[N-]C#N.N#C[N-]C#N	4.38 ± 0.3	4.07 ± 0.28	3.93 ± 0.27
C#CCCCCC [1-heptyne] + CCCOC[n+]1ccn(C)c1.N#C[N-]C#N	10.9 ± 0.74	10.9 ± 0.74	10.7 ± 0.73
CCOCC [diethyl ether] + CCCOC[n+]1ccn(C)c1.F[B-](F)(F)F	10.4 ± 0.71	10.6 ± 0.72	
CCCC(C)=O [pentan-2-one] + CCCOC[n+]1ccc(N(C)C)cc1.O=S(=O)([N-]S(=O)(=O)C(F)(F)F)C(F)(F)F	0.75 ± 0.05	0.78 ± 0.05	0.78 ± 0.05
C[N+](=O)[O-] [nitromethane] + CCCOC[n+]1ccn(Cc2ccccc2)c1.N#C[N-]C#N	1.06 ± 0.07	0.71 ± 0.05	0.72 ± 0.05
Cc1cccc(C)c1 [1,3-dimethylbenzene] + CCCOC[n+]1ccn(Cc2ccccc2)c1.O=S(=O)([N-]S(=O)(=O)C(F)(F)F)C(F)(F)F	1.55 ± 0.1	1.37 ± 0.09	1.35 ± 0.09
CC(C)O [propan-2-ol] + CCCOC[n+]1ccn(Cc2ccccc2)c1.F[B-](F)(F)F	2.19 ± 0.15	1.96 ± 0.13	1.81 ± 0.12
